Data from patent publication US20120208746A1, “GENETIC MARKERS ASSOCIATED WITH RESPONSE TO CYCLOPHILIN-BINDING COMPOUNDS” (priority 2011, published 2012).

Tests used:
[1] = test system: neopterin; assay: Plasma neopterin concentration (ELISA) in HCV patients given SCY-635; assay type: in vivo, human; conditions: 900 mg/d, all subjects
Experimental: (§1) The plasma concentrations of neopterin and 2′5′OAS1 (markers of innate immune activation) and interferons α, β, λ1 (1L29), and λ3 (IL28B) were quantified from patient samples using commercially available ELISA-based assays. IL28B genotyping was performed using real time PCR with allele-specific Taqman probes to detect a single nucleotide polymorphism rs12979860 C/T on chromosome 18q13.
as §1, with “2′5′OAS-1” for “2′5′OAS1”, “(IL29)” for “(1L29),”, “(IL28)” for “(IL28B)”, “[…]. Informed consent was obtained from all subjects who participated in the study.” for “18q13.”

[2] = test system: interferon Lambda 1 (IL29); assay: Plasma interferon Lambda 1 (IL29) in normal healthy volunteers given SCY-635; assay type: in vivo, human; conditions: 500 mg b.i.d., 14 days
Experimental: To establish whether the treatment-associated stimulation of endogenous interferon production is a virus dependent phenomenon, normal healthy volunteers who received SCY-635 at a total daily dose of 1,000 milligrams (500 mg b.i.d.) in a clinical study over 14 days can have samples taken and analyzed to determine their IL28B genotype and to assay for the presence of endogenous interferons.

[3] = test system: IFNα; assay: IFNα induction in subgenomic con1b HuH7 cells; assay type: cell-based, human; conditions: SCY-635 2 μM or IFNα-2b 50 U/ml, days 1-4
Experimental: (§2) Subgenomic con1b HuH7 and parent HuH7 cells were maintained in a humidified incubator at 37° C. in 5% CO2. Cells were cultured in Dulbecco's modified essential media (DMEM) supplemented with 10% fetal bovine serum (FBS), 1% penicillin-streptomycin, 1% glutamine, and 1% non-essential amino acids. Media for subgenomic con1b HuH7 cells also contained 5 mg/ml G418.
Subgenomic replicon cells were plated into 6-well dishes at a starting density of 100,000 cells per well in the presence of G418. Parental HuH7 cells were plated in parallel at a starting density of 50,000 cells per well to obtain similar densities to replicon cells on days 3 and 4. Five plates of each cell line were prepared; plates were incubated overnight in a humidified incubator at 37° C. in 5% CO2. […]
IFNα in cell supernatants was measured using the Human IFNα Multi-Subtype ELISA kit (PBL 41105) following the kit protocol with two exceptions. […] IFNβ in cell supernatants was measured using the Human IFNβ ELISA kit (PBL 41410) following the kit protocol.
(§3) IFNλ1, which is the Interleukin 29 (IL29) gene product, and 2′-5′ Oligoadenylate Synthetase 1 (2′-5′ OAS) in cell supernatants were measured using the ELISA kit for IL29 or 2′-5′ OAS (USCN Life Sciences E92029Hu, E92684Hu) following the kit protocols. Combined IFNα levels were measured using the VeriPlex™ Human Interferon Multiplex ELISA kit (9-plex), following the kit protocols.

[4] = test system: 2′-5′ OAS; assay: 2′-5′ OAS induction in subgenomic con1b HuH7 cells; assay type: cell-based, human; conditions: SCY-635 2 μM or IFNα-2b 50 U/ml
Experimental: as §2
Subgenomic replicon cells were plated into 6-well dishes at a starting density of 100,000 cells per well in the presence of G418. Parental HuH7 cells were plated in parallel at a starting density of 50,000 cells per well to obtain similar densities to replicon cells on days 3 and 4. Five plates of each cell line were prepared; plates were incubated overnight in a humidified incubator at 37° C. in 5% CO2.
One plate of each cell line was harvested as follows; • Centrifuged the 6-well plate at approximately 700×g for 10 min at 4° C. in swinging bucket rotor. • Removed the extracellular medium from each well and placed in a 5 ml cryovial. […]
as §3

SMILES: C/C=C/C[C@@H](C)[C@@H](O)[C@H]1C(=O)N[C@@H](CC)C(=O)N(C)[C@H](SCCN(C)C)C(=O)N(C)[C@@H](CC(C)(C)O)C(=O)N[C@@H](C(C)C)C(=O)N(C)[C@@H](CC(C)C)C(=O)N[C@@H](C)C(=O)N[C@H](C)C(=O)N(C)[C@@H](CC(C)C)C(=O)N(C)[C@@H](CC(C)C)C(=O)N(C)[C@@H](C(C)C)C(=O)N1C [SCY-635, 3-[(R)-2-(N,N-dimethylamino)ethylthio-Sar]-4-(gamma-hydroxymethylleucine)cyclosporin]
- plasma concentration of neopterin, change [1]: temporally coincident increases
- levels of interferon Lambda 1 [2]: did not result in a substantial change
- IFNα production over time [3]: steady increase in levels of IFNα production from day 1 to day 4
- levels of 2′-5′ OAS [4]: increased levels
